Results reported in USRE43802E1, “α- and β-amino acid hydroxyethylamino sulfonamides useful as retroviral protease inhibitors” (G.D. Searle LLC, priority 1992, dated 2012).
Like-named read-outs stand apart in the source and are kept apart here.

What was measured:
HIV protease = molecular target: T1, HIV protease (Human immunodeficiency virus type 1 group M subtype B, UniProt P04585); assay: HIV protease enzyme assay (fluorescence, substrate 2-Ile-Nle-Phe(p-NO2)-Gln-ArgNH2); format: biochemical; conditions: for IC50: HIV protease enzyme assay
T1 construct: HIV protease is diluted in the assay buffer to a final enzyme concentration of 12.3 nanomolar, based on a molecular weight of 10,780
Procedure: The enzyme method is described below. […] The positive control is MVT-101 (Miller, M. et al, Science, 246, 1149 (1989)] The assay conditions are as follows:
Assay buffer: 20 mM sodium phosphate, pH 6.4 20% glycerol 1 mM EDTA 1 mM DTT 0.1% CHAPS
The above described substrate is dissolved in DMSO, then diluted 10 fold in assay buffer. Final substrate concentration in the assay is 80 μM.
The final concentration of DMSO is 14% and the final concentration of glycerol is 18%. The test compound is dissolved in DMSO and diluted in DMSO to 10× the test concentration; 10 μl of the enzyme preparation is added, the materials mixed and then the mixture is incubated at ambient temperature for 15 minutes. The enzyme reaction is initiated by the addition of 40 μl of substrate. The increase in fluorescence is monitored at 4 time points (0, 8, 16 and 24 minutes) at ambient temperature. Each assay is carried out in duplicate wells.

HIV-1 = assay: microbe, parasite or virus in culture; conditions: Human immunodeficiency virus 1, CCRF-CEM, 168 h
Procedure: Assays were performed in 96-well tissue culture plates. CEM cells, a CD4^+ cell line, were grown in RPMI-1640 medium (Gibco) supplemented with a 10% fetal calf serum and were then treated with polybrene (2 μg/ml). An 80 μl volume of medium containing 1×10^4 cells was dispensed into each well of the tissue culture plate. To each well was added a 100 μl volume of test compound dissolved in tissue culture medium (or medium without test compound as a control) to achieve the desired final concentration and the cells were incubated at 37° C. for 1 hour. […] Likewise, the intrinsic toxicity of the test compound was determined by adding medium without virus to several wells containing test compound. […]
Following the addition of virus, cells were incubated at 37° C. in a humidified, 5% CO2 atmosphere for 7 days. […] The absorbance at 590 nm was determined for each sample using a Molecular Devices microplate reader. Absorbance values for each set of wells is compared to assess viral control infection, uninfected control cell response as well as test compound by cytotoxicity and antiviral efficacy.

CEM cells = assay: Intrinsic toxicity of test compound in uninfected CEM cells (MTT); format: cell-based; conditions: Table 21
Description: Methods, 20, 309-321 (1988).

[1] = Table 19B, read-out: IC50 (uM) or % inhib: IC50
[2] = Table 20, read-out: IC50 (uM) or % inhibition: IC50

COc1ccc(S(=O)(=O)N(CC(C)C)C[C@@H](O)[C@H](Cc2ccccc2)NC(=O)O[C@H]2CCS(=O)(=O)C2)cc1
melting point: 69 °C

CNC(=O)C[C@H](NC(=O)c1ccc2ccccc2n1)C(=O)N[C@@H](Cc1ccccc1)[C@H](O)CN(CCC(C)C)S(=O)(=O)c1ccccc1 [Entry 7]
IC50 (HIV protease; IC50 (nM), Table 21): 3 nM
EC50 (HIV-1): 25 nM

CC(C)CN(C[C@@H](O)[C@H](Cc1ccccc1)NC(=O)OCc1cccnc1)S(=O)(=O)c1ccccc1 [Example 16]
IC50 (HIV protease; Table 21, read-out: IC50): 9 nM
TD50 (nM) (CEM cells): 62,000 nM

COc1ccc(S(=O)(=O)N(CC(C)C)C[C@@H](O)[C@H](Cc2ccccc2)NC(=O)OCc2cccnc2)cc1 [Example 17]
IC50 (HIV protease; Table 21, read-out: IC50): 4 nM
TD50 (nM) (CEM cells): 59,000 nM

COc1ccc(S(=O)(=O)N(CC(C)C)C[C@@H](O)[C@H](Cc2ccccc2)NC(=O)OCc2ccncc2)cc1 [Example 22]
IC50 (HIV protease; Table 21, read-out: IC50): 15 nM
TD50 (nM) (CEM cells): 31,000 nM

COc1ccc(S(=O)(=O)N(CC(C)C)C[C@@H](O)[C@H](Cc2ccccc2)NC(=O)OCc2ccc[n+]([O-])c2)cc1 [Example 25]
IC50 (HIV protease; Table 21, read-out: IC50): 60 nM
TD50 (nM) (CEM cells): 167,000 nM

COc1ccc(S(=O)(=O)N(CC(C)C)C[C@@H](O)[C@H](Cc2ccccc2)NC(=O)OC(C)(C)C)cc1 [Example 27]
IC50 (HIV protease; Table 21, read-out: IC50): 5 nM
TD50 (nM) (CEM cells): 300,000 nM

COc1ccc(S(=O)(=O)N(CC(C)C)C[C@@H](O)[C@H](Cc2ccccc2)NC(=O)c2ccccc2)cc1 [Example 28]
TD50 (nM) (CEM cells): 213,000 nM

COc1ccc(S(=O)(=O)N(CC(C)C)C[C@@H](O)[C@H](Cc2ccccc2)NC(=O)c2ccccc2C)cc1 [Example 29]
TD50 (nM) (CEM cells): 196,000 nM

COc1ccc(S(=O)(=O)N(CC(C)C)C[C@@H](O)[C@H](Cc2ccccc2)NC(=O)c2ccccc2Cl)cc1 [Example 30]
TD50 (nM) (CEM cells): 154,000 nM

COc1ccc(S(=O)(=O)N(CC(C)C)C[C@@H](O)[C@H](Cc2ccccc2)NC(=O)c2c(C)cccc2C)cc1 [Example 32]
IC50 (HIV protease; IC50 (nM), Table 21): 5 nM
TD50 (nM) (CEM cells): 17,000 nM

CC(C)CN(C[C@@H](O)[C@H](Cc1ccccc1)NC(=O)OCc1cncs1)S(=O)(=O)c1cccc(N)c1 [Example 64]
IC50 (HIV protease; Table 21, read-out: IC50): 7 nM

Cc1c(O)cccc1C(=O)N[C@@H](Cc1ccccc1)[C@H](O)CN(CC(C)C)S(=O)(=O)c1cccc(N)c1 [Example 65]
IC50 (HIV protease; Table 21, read-out: IC50): 4 nM

CC(C)CN(C[C@@H](O)[C@H](Cc1ccccc1)NC(=O)OCc1cccnc1)S(=O)(=O)c1ccc2c(c1)CCO2 [Example 66]
IC50 (HIV protease; Table 21, read-out: IC50): 4 nM

CC(C)CN(C[C@@H](O)[C@H](Cc1ccccc1)NC(=O)OCc1cncs1)S(=O)(=O)c1ccc2c(c1)CCO2 [Example 67]
IC50 (HIV protease; Table 21, read-out: IC50): 5 nM

Cc1c(N)cccc1C(=O)N[C@@H](Cc1ccccc1)[C@H](O)CN(CC(C)C)S(=O)(=O)c1ccc2c(c1)CCO2 [Example 68]
IC50 (HIV protease; Table 21, read-out: IC50): 7 nM

CC(C)CN(C[C@@H](O)[C@H](Cc1ccccc1)NC(=O)OCc1cccnc1)S(=O)(=O)c1ccc2c(c1)OCO2 [Example 69]
IC50 (HIV protease; Table 21, read-out: IC50): 4 nM

CC(C)CN(C[C@@H](O)[C@H](Cc1ccccc1)NC(=O)OCc1cncs1)S(=O)(=O)c1ccc2c(c1)OCO2 [Example 70]
IC50 (HIV protease; Table 21, read-out: IC50): 5 nM

Cc1c(N)cccc1C(=O)N[C@@H](Cc1ccccc1)[C@H](O)CN(CC(C)C)S(=O)(=O)c1ccc2c(c1)OCO2 [Example 71]
IC50 (HIV protease; Table 21, read-out: IC50): 5 nM

Cc1cc(O)ccc1C(=O)N[C@@H](Cc1ccccc1)[C@H](O)CN(CC(C)C)S(=O)(=O)c1ccc2c(c1)OCO2 [Example 72]
IC50 (HIV protease; Table 21, read-out: IC50): 5 nM

Cc1c(O)cccc1C(=O)N[C@@H](Cc1ccccc1)[C@H](O)CN(CC(C)C)S(=O)(=O)c1ccc2c(c1)OCO2 [Example 73]
IC50 (HIV protease; Table 21, read-out: IC50): 4 nM

COc1ccc(S(=O)(=O)N(CC(C)C)C[C@@H](O)[C@H](Cc2ccccc2)NC(=O)COc2c(C)cccc2C)cc1 [Example 74]
IC50 (HIV protease; Table 21, read-out: IC50): 3 nM

COc1ccc(S(=O)(=O)N(CC(C)C)C[C@@H](O)[C@H](Cc2ccccc2)NC(=O)COc2ccccc2C)cc1 [Example 75]
IC50 (HIV protease; Table 21, read-out: IC50): 8 nM

COc1ccc(S(=O)(=O)N(CC(C)C)C[C@@H](O)[C@H](Cc2ccccc2)NC(=O)c2ccc3nc(N)sc3c2)cc1 [Example 76]
IC50 (HIV protease; Table 21, read-out: IC50): 5 nM

CC(C)CN(C[C@@H](O)[C@H](Cc1ccccc1)NC(=O)OCc1ccccc1)S(=O)(=O)c1ccc2nc(N)sc2c1 [Example 77]
IC50 (HIV protease; Table 21, read-out: IC50): 2 nM

CC(C)CN(C[C@@H](O)[C@H](Cc1ccccc1)NC(=O)COc1ccccc1)S(=O)(=O)c1ccc2ncsc2c1 [Example 78]
IC50 (HIV protease; Table 21, read-out: IC50): 3 nM

CCCS(=O)(=O)N(CCC(C)C)C[C@@H](O)[C@H](Cc1ccccc1)NC(=O)OCc1ccccc1 [Table 1a Entry 40]
IC50 (HIV protease; [1]): 210 nM

CC(C)CCN(C[C@@H](O)[C@H](Cc1ccccc1)NC(=O)OCc1ccccc1)S(C)(=O)=O [Table 1a Entry 41]
IC50 (uM) or % inhib: % inhib @ 1 uM (HIV protease; Table 19B): 24%
IC50 (uM) or % inhib: % inhib @ 10 uM (HIV protease; Table 19B): 74%

CC(C)CCN(C[C@@H](O)[C@H](Cc1ccccc1)NC(=O)OCc1ccccc1)S(=O)(=O)C(F)(F)F [Table 1a Entry 50]
IC50 (uM) or % inhib: % inhib @ 1 uM (HIV protease; Table 19B): 42%
IC50 (uM) or % inhib: % inhib @ 10 uM (HIV protease; Table 19B): 89%

CC(C)CN(C[C@@H](O)[C@H](Cc1ccccc1)NC(=O)OCc1ccccc1)S(C)(=O)=O [Table 1a Entry 51]
IC50 (uM) or % inhib: % inhib @ 1 uM (HIV protease; Table 19B): 31%
IC50 (uM) or % inhib: % inhib @ 10 uM (HIV protease; Table 19B): 76%

CC(C)CCN(C[C@@H](O)[C@H](Cc1ccccc1)NC(=O)OCc1ccccc1)S(=O)(=O)CCl [Table 1a Entry 52]
IC50 (uM) or % inhib: % inhib @ 1 uM (HIV protease; Table 19B): 39%
IC50 (uM) or % inhib: % inhib @ 10 uM (HIV protease; Table 19B): 81%

CC(C)CN(C[C@@H](O)[C@H](Cc1ccccc1)NC(=O)OCc1ccccc1)S(=O)(=O)C=Cc1ccccc1 [Table 1a Entry 53]
IC50 (HIV protease; [1]): 49 nM

C=CS(=O)(=O)N(CC(C)C)C[C@@H](O)[C@H](Cc1ccccc1)NC(=O)OCc1ccccc1 [Table 1a Entry 55]
IC50 (HIV protease; [1]): 100 nM

CCC(C)CN(C[C@@H](O)[C@H](Cc1ccccc1)NC(=O)OCc1ccccc1)S(=O)(=O)c1ccc(OC)cc1 (stereo partly shown) [Table 1a Entry 56]
IC50 (HIV protease; [1]): 3.6 nM

CC(C)CCN(C[C@@H](O)[C@H](Cc1ccccc1)NC(=O)C(NC(=O)CN(C)C)C(C)(C)C)S(C)(=O)=O (stereo partly shown) [Table 3 Entry 2]
IC50 (uM) or % inhib: % inhib @ 1 uM (HIV protease; Table 19B): 38%
IC50 (uM) or % inhib: % inhib @ 1.0 uM (HIV protease; Table 19B, @ 1.0 uM (second value of the cell)): 90%

CCC(C)C(NC(=O)OCc1ccccc1)C(=O)N[C@@H](Cc1ccccc1)[C@H](O)CN(CCC(C)C)S(=O)(=O)c1ccccc1 (stereo partly shown) [Table 3 Entry 4]
IC50 (HIV protease; [1]): 2.4 nM

CC(C)CCN(C[C@@H](O)[C@H](Cc1ccccc1)NC(=O)[C@@H](NC(=O)OCc1ccccc1)C(C)C)S(=O)(=O)c1ccccc1 [Table 5 Entry 1]
IC50 (HIV protease; [1]): 1.4 nM

CC(C)CCN(C[C@@H](O)[C@H](Cc1ccccc1)NC(=O)[C@H](CC(N)=O)NC(=O)OCc1ccccc1)S(=O)(=O)c1ccccc1 [Table 5 Entry 14]
IC50 (HIV protease; [1]): 2.2 nM

CC(C)CCN(C[C@@H](O)[C@H](Cc1ccccc1)NC(=O)[C@@H](NC(=O)OCc1ccccc1)C(C)(C)C)S(=O)(=O)c1ccccc1 [Table 5 Entry 22]
IC50 (HIV protease; [1]): 1.8 nM

C=CCOC(=O)N[C@@H](Cc1ccccc1)[C@H](O)CN(CC(C)C)S(=O)(=O)c1ccc(OC)cc1 [Table 5 Entry 33]
IC50 (HIV protease; [1]): 4.4 nM

COc1ccc(S(=O)(=O)N(CC(C)C)CC(O)C(Cc2ccccc2)NC(=O)C2CCCC2)cc1 (stereo not shown) [Table 5A Entry 1]
IC50 (HIV protease; [2]): 40 nM

CCc1ccccc1C(=O)NC(Cc1ccccc1)C(O)CN(CC(C)C)S(=O)(=O)c1ccc(OC)cc1 (stereo not shown) [Table 5A Entry 13]
IC50 (HIV protease; [2]): 9.8 nM

COc1ccc(S(=O)(=O)N(CC(C)C)CC(O)C(Cc2ccccc2)NC(=O)c2cccc(C)c2C)cc1 (stereo not shown) [Table 5A Entry 16]
IC50 (HIV protease; [2]): 8 nM

COc1ccc(S(=O)(=O)N(CC(C)C)CC(O)C(Cc2ccccc2)NC(=O)c2ccccc2S(C)(=O)=O)cc1 (stereo not shown) [Table 5A Entry 17]
IC50 (uM) or % inhibition: % inhibition @ 10 μM (HIV protease; Table 20, @ 10 μM): 59% @ 10 μM

COc1ccc(S(=O)(=O)N(CC(C)C)CC(O)C(Cc2ccccc2)NC(=O)c2cccc(S(C)(=O)=O)c2)cc1 (stereo not shown) [Table 5A Entry 18]
IC50 (HIV protease; [2]): 130 nM

COc1ccc(S(=O)(=O)N(CC(C)C)CC(O)C(Cc2ccccc2)NC(=O)c2ccc(S(C)(=O)=O)cc2)cc1 (stereo not shown) [Table 5A Entry 19]
IC50 (HIV protease; [2]): 92 nM

COc1ccc(S(=O)(=O)N(CC(C)C)CC(O)C(Cc2ccccc2)NC(=O)c2ccccc2CS(C)(=O)=O)cc1 (stereo not shown) [Table 5A Entry 20]
IC50 (uM) or % inhibition: % inhibition @ 1 μM (HIV protease; Table 20): 85% @ 1 μM

COc1ccc(S(=O)(=O)N(CC(C)C)CC(O)C(Cc2ccccc2)NC(=O)c2ccc(CS(C)(=O)=O)cc2)cc1 (stereo not shown) [Table 5A Entry 22]
IC50 (uM) or % inhibition: % inhibition @ 1 μM (HIV protease; Table 20): 63% @ 1 μM

CC(C)CN(CC(O)C(Cc1ccccc1)NC(=O)c1ccccc1)S(=O)(=O)c1ccccc1 (stereo not shown) [Table 5A Entry 24]
IC50 (HIV protease; [2]): 47 nM

CC(C)CCN(CC(O)C(Cc1ccccc1)NC(=O)C(N)C(C)(C)C)S(=O)(=O)c1ccccc1 (stereo not shown) [Table 11 Entry 1]
IC50 (HIV protease; [1]): 130 nM

CC(C)CCN(CC(O)C(Cc1ccccc1)NC(=O)C(NC(=O)CBr)C(C)(C)C)S(=O)(=O)c1ccccc1 (stereo not shown) [Table 12 Entry 10]
IC50 (HIV protease; [1]): 3.3 nM

CSC(C)(C)[C@H](NC(=O)CN(C)C)C(=O)N[C@@H](Cc1ccccc1)[C@H](O)CN(CCC(C)C)S(=O)(=O)c1ccccc1 [Table 14 Entry 3]
IC50 (HIV protease; [1]): 4.9 nM
